Assay results as given in patent publication US20250059395A1, “SURFACTANTS FOR INKS, PAINTS, AND ADHESIVES” (AdvanSix Resins & Chemicals LLC, priority 2023, published 2025).

Experiment: Critical micelle concentration and surface tension by Wilhelmy plate method
Format: physicochemical
Conditions: comparison of Surfactant 9 and Comparative Surfactant
Excerpt: As surfactant concentration increases, surface tension decreases. Once the surface is completely overlaid with surfactant molecules, micelles begin to form. This point represents the CMC, as well as the minimum surface tension. Further addition of surfactant will not further affect the surface tension. CMC may therefore be measured by observing the change in surface tension as a function of surfactant concentration. One such method for measuring this value is the Wilhemy plate method. A Wilhelmy plate is usually a thin iridium-platinum plate attached to a balance by a wire and placed perpendicularly to the air-liquid interface. The balance is used to measure the force exerted on the plate by wetting. This value is then used to calculate the surface tension (Y) according to Equation 1: […]
Nuclear magnetic resonance (NMR) spectroscopy was performed on a Bruker 500 MHz spectrometer. The critical micelle concentration (CMC) was determined by the Wilhelmy plate method at 23° C. with a tensiometer (DCAT 11, DataPhysics Instruments GmbH) equipped with a Pt—Ir plate. Dynamic surface tension was determined with a bubble pressure tensiometer (Krüss BP100, Krüss GmbH), at 23° C. Contact angle was determined with the optical contact angle goniometer (OCA 15 Pro, DataPhysics GmbH) equipped with a digital camera.

Compound	surfactant properties (activity in words)
C[N+](C)(CCCCCC(=O)NCCC[Si](O[Si](C)(C)C)(O[Si](C)(C)C)O[Si](C)(C)C)CC(=O)O [Comparative Surfactant, N-(carboxymethyl)-6-((3-(1,1,1,5,5,5-hexamethyl-3-((trimethylsilyl)oxy)trisiloxan-3-yl)propyl)amino)-N,N-dimethyl-6-oxohexan-1-aminium bromide]	inferior surfactant properties
C[N+](C)(CCCCCC(=O)O)CCCCCC(=O)NCCC[Si](O[Si](C)(C)C)(O[Si](C)(C)C)O[Si](C)(C)C [Surfactant 9, N-(5-carboxypentyl)-6-((3-(1,1,1,5,5,5-hexamethyl-3-((trimethylsilyl)oxy)trisiloxan-3-yl)propyl)amino)-N,N-dimethyl-6-oxohexan-1-aminium bromide]	excellent activity
